Values after ≈ are worked out from the molar mass of the structure shown.
How the values were obtained:
[1] = system: Mycolicibacterium smegmatis; test: Antibacterial activity against Mycobacterium smegmatis after 24 hrs by broth microtiter susceptibility assay in absence of mouse plasma; type: functional
Enterococcus faecium [2] = test: Antibacterial activity against vancomycin-resistant Enterococcus faecium after 24 hrs by broth microtiter susceptibility assay in absence of mouse plasma; type: functional
L1210 [3] = test: Cytotoxicity against mouse L1210 cells by MTT assay; type: functional, cell-based
Priestia megaterium [4] = test: Inhibition of protein synthesis in Bacillus megaterium Mb 410 assessed as L-[4,5-3H]leucine incorporation by scintillation counting; type: functional, organism-based
Priestia megaterium [5] = test: Inhibition of cell wall synthesis in Bacillus megaterium Mb 410 assessed as [2,6-3H]diaminopimelic incorporation by scintillation counting; type: functional, organism-based
Staphylococcus aureus [6] = test: Antibacterial activity against methicillin-resistant Staphylococcus aureus after 24 hrs by broth microtiter susceptibility assay in absence of mouse plasma; type: functional
[7] = Toxicity in defibrinated sheep RBC assessed as minimum lytic concentration causing hemolysis after 2 hrs by liquid microtiter assay; type: cell-based, Ovis aries; conditions: erythrocyte
L1210 [8] = test: Cytotoxicity against mouse L1210 cells after 24 hrs by trypan blue assay; type: functional, cell-based; conditions: L1210, 24 h
Priestia megaterium [9] = test: Antibacterial activity against Bacillus megaterium Mb 410 after 24 hrs by broth microtiter susceptibility assay in absence of mouse plasma; type: functional
Staphylococcus aureus [10] = test: Antibacterial activity against methicillin-resistant Staphylococcus aureus after 24 hrs by broth microtiter susceptibility assay in presence of mouse plasma; type: functional
[11] = system: Mycolicibacterium smegmatis; test: Antibacterial activity against Mycobacterium smegmatis after 24 hrs by broth microtiter susceptibility assay in presence of mouse plasma; type: functional
Priestia megaterium [12] = test: Inhibition of DNA synthesis in Bacillus megaterium Mb 410 assessed as [6-3H]thymidine incorporation by scintillation counting; type: functional, organism-based
Priestia megaterium [13] = test: Inhibition of RNA synthesis in Bacillus megaterium Mb 410 assessed as [5,6-3H]uracil incorporation by scintillation counting; type: functional, organism-based
Enterococcus faecium [14] = test: Antibacterial activity against vancomycin-resistant Enterococcus faecium after 24 hrs by broth microtiter susceptibility assay in presence of mouse plasma; type: functional

Work on `CC(C)=CCc1c(O)c(CC=C(C)C)c2c(c1O)C(=O)C[C@@H](c1ccc(O)cc1)O2` [LONCHOCARPOL A] yielded an MIC [1] greater than 100 mg/L, an MIC (Enterococcus faecium [2]) of 0.78 mg/L (≈ 1.91 µM) and an IC50 (L1210 [3]) greater than 10 mg/L. For the same molecule, the IC50 (Priestia megaterium [4]) was 2.5 mg/L (≈ 6.12 µM), the IC50 (Priestia megaterium [5]) was 1.9 mg/L (≈ 4.65 µM) and the MIC (Staphylococcus aureus [6]) was 0.78 mg/L (≈ 1.91 µM). For the same molecule, the Activity [7] was “>= 100 ug ml-1”, the IC50 (L1210 [8]) was 10 mg/L (≈ 24.5 µM) and the MIC (Priestia megaterium [9]) was 1 mg/L (≈ 2.45 µM). The MIC (Staphylococcus aureus [10]) was no less than 100 mg/L, the MIC [11] was no less than 100 mg/L and the IC50 (Priestia megaterium [12]) was 3.9 mg/L (≈ 9.55 µM). The IC50 (Priestia megaterium [13]) was 1.9 mg/L (≈ 4.65 µM) and the MIC (Enterococcus faecium [14]) was no less than 100 mg/L.

Source: ChEMBL document CHEMBL1150885, “Antibacterial activity of lonchocarpol A” (J Nat Prod, 1998)
